Laboratory results as given in patent publication US10208033B2, “β-carboline, dihydro-β-carboline and tetrahydro-β-carboline alkaloid derivatives and preparation methods same and use in aspects of preventing and treating plant viruses, fungicides and insecticides” (NANKAI UNIVERSITY, priority 2013, dated 2019).
Read-outs that look alike come from different tables or passages of the source.

Assays:
Alternaria solani = experiment: Fungicidal (bactericidal) activity in vitro, PDA colony diameter; type: cell-based; conditions: 50 mg/kg; for inhibition of growth at 50 mg/kg: Alternaria solani, 96 h
Fusarium graminearumt = experiment: microbe, parasite or virus in culture; type: cell-based; conditions: for inhibition of growth at 50 mg/kg: Fusarium, 96 h, read-out: Bactericidal activity (%) Fusarium graminearumt; for Bactericidal activity (%) Fusarium graminearumt: 50 mg/kg
Fusarium fujikuroi = experiment: Fungicidal (bactericidal) activity in vitro, PDA colony diameter; type: cell-based; conditions: 50 mg/kg; for inhibition of growth at 50 mg/kg: Fusarium fujikuroi, 96 h
Sclerotinia scleotiorum = experiment: as above; type: cell-based; conditions: 50 mg/kg; for inhibition of growth at 50 mg/kg: Sclerotinia, 96 h
Macrophoma kawatsukai = experiment: as above; type: cell-based; conditions: 50 mg/kg
Rhizoctonia solani = experiment: as above; type: cell-based; conditions: 50 mg/kg; for inhibition of growth at 50 mg/kg: Rhizoctonia solani, 96 h
Rhizoctonia cereali = experiment: as above; type: cell-based; conditions: 50 mg/kg; for inhibition of growth at 50 mg/kg: Rhizoctonia, 96 h
potato late blight = experiment: microbe, parasite or virus in culture; type: cell-based; conditions: for inhibition of growth at 50 mg/kg: Phytophthora infestans, 96 h, read-out: Bactericidal activity (%) potato late blight
Bipolaria maydis = experiment: organism not typed; type: cell-based; conditions: for inhibition at 50 mg/kg: read-out: Bactericidal activity (%) Bipolaria maydis; for Bactericidal activity (%) Bipolaria maydis: 50 mg/kg
cucumber fusarium wilt = experiment: Fungicidal (bactericidal) activity in vitro, PDA colony diameter; type: cell-based; conditions: 50 mg/kg; for inhibition of growth at 50 mg/kg: Fusarium, 96 h
Cercospora arachidicola = experiment: as above; type: cell-based; conditions: 50 mg/kg; for inhibition of growth at 50 mg/kg: Mycosphaerella arachidis, 96 h
[1] = system: Colletotrichum orbiculare; experiment: as above; type: cell-based; conditions: 50 mg/kg; for inhibition of growth at 50 mg/kg: Colletotrichum orbiculare, 96 h
Phytophthora capsici = experiment: as above; type: cell-based; conditions: 50 mg/kg; for inhibition of growth at 50 mg/kg: Phytophthora capsici, 96 h
Botrytis cinerea = experiment: as above; type: cell-based; conditions: for inhibition of growth at 50 mg/kg: Botrytis cinerea, 96 h
cotton bollworms = experiment: whole plant or invertebrate
Description: Experimental method of cotton bollworms: feed and drug mixing method: measure 3 mL of prepared solution and add it to about 27 g of newly prepared feed, thereby obtaining needed concentration through dilution by 10 times.

[2] = system: tobacco mosaic virus (TMV); experiment: Anti-TMV in vivo inactivation; set-up: species or system tobacco mosaic virus (host Nicotiana tabacum L.cv.Xanthi NN)
[3] = system: tobacco mosaic virus (TMV); experiment: Anti-TMV in vitro effect (half-leaf soaking); type: cell-based, tobacco mosaic virus (host Nicotiana tabacum L.cv.Xanthi NN)
[4] = system: tobacco mosaic virus (TMV); experiment: Anti-TMV in vivo protective effect; set-up: species or system tobacco mosaic virus (host Nicotiana tabacum L.cv.Xanthi NN)
armyworms = type: in vivo; conditions: concentration 600 mg/kg
[5] = system: tobacco mosaic virus (TMV); experiment: Anti-TMV in vivo therapeutic effect; set-up: species or system tobacco mosaic virus (host Nicotiana tabacum L.cv.Xanthi NN)
mosquito larvae = experiment: whole plant or invertebrate; conditions: 24 h
Description: Experimental method of mosquito larvae: culex pipiens pallens, a normal colony raised indoors. Weigh about 5 mg of the compound for test, put it in a penicillin vial, add 5 mL of acetone (or an appropriate solvent), and shake and dissolve it to obtain a 1000 ppm mother solution. Pipette 0.5 mL of the mother solution, add it to a 100 mL beaker filled with 89.9 mL of water, select 10 mosquito larvae at the beginning of the fourth instar, and pour them to a beaker together with 10 mL of feeding solution. The concentration of the drug solution is 5 ppm. […] Use an aqueous solution containing 0.5 mL of test solvent as a blank.

Compound: COC(=O)Nc1nc2ccccc2[nH]1 [Carbendazim]
- inhibition of growth at 50 mg/kg (Alternaria solani): < 50%
- inhibition of growth at 50 mg/kg (Fusarium graminearumt): 100%
- inhibition of growth at 50 mg/kg (Fusarium fujikuroi): < 50%
- inhibition of growth at 50 mg/kg (Sclerotinia scleotiorum): 100%
- inhibition at 50 mg/kg (Macrophoma kawatsukai): < 50%
- inhibition of growth at 50 mg/kg (Rhizoctonia solani): 100%
- inhibition of growth at 50 mg/kg (Rhizoctonia cereali): 100%
- inhibition of growth at 50 mg/kg (potato late blight): 100%
- inhibition at 50 mg/kg (Bipolaria maydis): 100%
- inhibition of growth at 50 mg/kg (cucumber fusarium wilt): < 50%
- inhibition of growth at 50 mg/kg (Cercospora arachidicola): < 50%
- inhibition of growth at 50 mg/kg [1]: 100%
- inhibition of growth at 50 mg/kg (Phytophthora capsici): < 50%
- inhibition of growth at 50 mg/kg (Botrytis cinerea; 50 mg/kg): < 50%

Compound: N#Cc1c(Cl)c(Cl)c(Cl)c(C#N)c1Cl [Chlorothalonil]
- inhibition of growth at 50 mg/kg (Alternaria solani): 73.3%
- inhibition of growth at 50 mg/kg (Fusarium graminearumt): < 50%
- inhibition of growth at 50 mg/kg (Fusarium fujikuroi): 100%
- inhibition of growth at 50 mg/kg (Sclerotinia scleotiorum): < 50%
- inhibition at 50 mg/kg (Macrophoma kawatsukai): 100%
- inhibition of growth at 50 mg/kg (Rhizoctonia solani): 100%
- inhibition of growth at 50 mg/kg (Rhizoctonia cereali): 100%
- inhibition of growth at 50 mg/kg (potato late blight): 86.4%
- inhibition at 50 mg/kg (Bipolaria maydis): 91.3%
- inhibition of growth at 50 mg/kg (cucumber fusarium wilt): 100%
- inhibition of growth at 50 mg/kg (Cercospora arachidicola): 73.3%
- inhibition of growth at 50 mg/kg [1]: 91.3%
- inhibition of growth at 50 mg/kg (Phytophthora capsici): 100%
- inhibition of growth at 50 mg/kg (Botrytis cinerea; 50 mg/kg): 100%

Compound: Cc1nccc2c1[nH]c1cc(OC(=O)N(C)C)ccc12 [Ia-6, dimethylcarbamate (1-methylpyridino [3,4-b]indol-7)-ester]
- Bactericidal activity (%) Alternaria solani (Alternaria solani): 15.8%
- Corn borer Mortality (%) (corn borers; concentration 600 mg/kg): 35%
- Bactericidal activity (%) Fusarium graminearumt (Fusarium graminearumt): 38.1%
- Bactericidal activity (%) Fusarium fujikuroi (Fusarium fujikuroi): 21.4%
- Bactericidal activity (%) Sclerotinia scleotiorum (Sclerotinia scleotiorum): 7.8%
- Cotton bollworm Mortality (%) (cotton bollworms; concentration 600 mg/kg): 20%
- Relative inhibition rate (%) In vivo inactivation ([2]; treatment dose 100 μg/mL): 0%
- Relative inhibition rate (%) In vivo inactivation ([2]; treatment dose 500 μg/mL): 12%
- Bactericidal activity (%) Macrophoma kawatsukai (Macrophoma kawatsukai): 26.2%
- Bactericidal activity (%) Rhizoctonia solani (Rhizoctonia solani): 46.1%
- Relative inhibition rate (%) In vitro activity ([3]; treatment dose 100 μg/mL): 0%
- Relative inhibition rate (%) In vitro activity ([3]; treatment dose 500 μg/mL): 12.6%
- Bactericidal activity (%) Rhizoctonia cereali (Rhizoctonia cereali): 36.8%
- Relative inhibition rate (%) In vivo protection ([4]; treatment dose 100 μg/mL): 0%
- Relative inhibition rate (%) In vivo protection ([4]; treatment dose 500 μg/mL): 18.7%
- Bactericidal activity (%) potato late blight (potato late blight): 9.1%
- Bactericidal activity (%) Bipolaria maydis (Bipolaria maydis): 27.3%
- Bactericidal activity (%) Cucumber fusarium wilt (cucumber fusarium wilt): 23.1%
- Armyworm Mortality (%) (armyworms): 45%
- Bactericidal activity (%) Cercospora arachidicola (Cercospora arachidicola): 53.9%
- Relative inhibition rate (%) In vivo therapy ([5]; treatment dose 100 μg/mL): 0%
- Relative inhibition rate (%) In vivo therapy ([5]; treatment dose 500 μg/mL): 15.6%
- Bactericidal activity (%) Colletotrichum orbiculare [1]: 35.7%
- Mosquito larvae Mortality (%) (mosquito larvae; concentration 5 mg/kg): 20%
- Mosquito larvae Mortality (%) (mosquito larvae; concentration 10 mg/kg): 100%
- Bactericidal activity (%) Phytophthora capsici (Phytophthora capsici): 9.4%
- Bactericidal activity (%) Botrytis cinerea (Botrytis cinerea; 50 mg/kg): 12.1%

Compound: O=C(O)[C@@H]1Cc2c([nH]c3ccccc23)[C@H](c2cccnc2)N1 [Ib-6, (1S, 3S)-1-(pyridine-3)-2,3,4,9-tetrahydropyridino [3,4-b] indol-3-formic acid]
- Bactericidal activity (%) Alternaria solani (Alternaria solani): 26.3%
- Corn borer Mortality (%) (corn borers; in vivo): 40%
- Bactericidal activity (%) Fusarium graminearumt (Fusarium graminearumt): 31.0%
- Bactericidal activity (%) Fusarium fujikuroi (Fusarium fujikuroi): 14.3%
- Bactericidal activity (%) Sclerotinia scleotiorum (Sclerotinia scleotiorum): 29.4%
- Cotton bollworm Mortality (%) (cotton bollworms; in vivo): 20%
- Relative inhibition rate (%) In vivo inactivation ([2]; treatment dose 100 μg/mL): 0%
- Relative inhibition rate (%) In vivo inactivation ([2]; treatment dose 500 μg/mL): 17.5%
- Bactericidal activity (%) Macrophoma kawatsukai (Macrophoma kawatsukai): 61.9%
- Bactericidal activity (%) Rhizoctonia solani (Rhizoctonia solani): 32.9%
- Relative inhibition rate (%) In vitro activity ([3]; treatment dose 100 μg/mL): 0%
- Relative inhibition rate (%) In vitro activity ([3]; treatment dose 500 μg/mL): 25%
- Bactericidal activity (%) Rhizoctonia cereali (Rhizoctonia cereali): 63.2%
- Relative inhibition rate (%) In vivo protection ([4]; treatment dose 100 μg/mL): 0%
- Relative inhibition rate (%) In vivo protection ([4]; treatment dose 500 μg/mL): 24.8%
- Bactericidal activity (%) potato late blight (potato late blight): 27.3%
- Bactericidal activity (%) Bipolaria maydis (Bipolaria maydis): 36.4%
- Bactericidal activity (%) Cucumber fusarium wilt (cucumber fusarium wilt): 26.9%
- Armyworm Mortality (%) (armyworms): 45%
- Bactericidal activity (%) Cercospora arachidicola (Cercospora arachidicola): 84.6%
- Relative inhibition rate (%) In vivo therapy ([5]; treatment dose 100 μg/mL): 0%
- Relative inhibition rate (%) In vivo therapy ([5]; treatment dose 500 μg/mL): 21.4%
- Bactericidal activity (%) Colletotrichum orbiculare [1]: 32.1%
- Bactericidal activity (%) Phytophthora capsici (Phytophthora capsici): 9.4%
- Bactericidal activity (%) Botrytis cinerea (Botrytis cinerea): 27.3%
